This series can be described thus: Relative thermodynamic stability of cabergoline polymorphs (slurry of a mixture of forms I and II). The series is classed as physicochemical. The following applies: range of temperature between −70 and +30° C.; compared with Form I. How it is done:
It can be readily prepared starting from crude material by crystallization from several solvents at low temperatures. Alternatively it can be prepared by slurry of a mixture of forms I and II in a solvent at a temperature below 30° C. The importance of cabergoline form II rests primarily (but not exclusively) in its thermodynamic stability.
Crystalline Form II cabergoline may be also prepared by subjecting a mixture of crystal forms I and II of cabergoline to a slurry procedure at a temperature below 30° C. Preferably, the mixture is stirred at room temperature in organic aliphatic linear C4-7 alkanes or C4-C5 ethers such as n-hexane or diethyl ether. In the mixture, the Form I/Form II ratio is preferably from 10:1 to 1:10. The resultant crystals were collected as above described.
A mixture of 200 mg of form I and of an equal amount of form II was added to 50 ml of n-hexane at 25° C. The suspension was stirred for about 12 hours, then filtered using a glass filter under vacuum. The collected crystals were identified by analytical methods as pure form II. The analytical data were the same of example 1.
A mixture of 50 mg of form I and of 350 mg of form II was added to 5 ml of diethyl ether at −5° C. The suspension was stirred for about 12 hours, then filtered using a glass filter under vacuum. The collected crystals were identified by analytical methods as pure form II. […]

Consider one compound from patent US6800635B2, “Crystalline form II of cabergoline” (Pharmacia Italia, S.p.A., priority 2000, dated 2004).

Each structure is given as a SMILES string.

`C=CCN1C[C@H](C(=O)N(CCCN(C)C)C(=O)NCC)C[C@@H]2c3cccc4[nH]cc(c34)C[C@H]21` [Form II, 1((6-allylergolin-8Beta-yl)-carbonyl)-1-(3-dimethylaminopropyl)-3-ethylurea]: the “thermodynamic stability of the polymorph” value is listed as “thermodynamically most stable polymorph”.
